The text below walks through data of patent US11203600B2 (Denali Therapeutics Inc., priority 2017, dated 2021).

GST-hRIPK1 (8-327), sequence (Q13546 8-327): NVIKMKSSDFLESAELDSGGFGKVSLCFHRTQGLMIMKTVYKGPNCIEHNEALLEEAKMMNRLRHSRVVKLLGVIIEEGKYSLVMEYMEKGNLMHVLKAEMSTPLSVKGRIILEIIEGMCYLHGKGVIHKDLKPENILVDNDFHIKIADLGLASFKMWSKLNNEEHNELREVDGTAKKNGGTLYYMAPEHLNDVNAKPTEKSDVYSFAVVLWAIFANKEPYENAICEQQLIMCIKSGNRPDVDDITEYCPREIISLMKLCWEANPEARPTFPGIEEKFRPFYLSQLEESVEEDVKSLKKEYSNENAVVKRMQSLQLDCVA

For the first experiment, the target named is GST-hRIPK1 (8-327) (Homo sapiens (Human), UniProt Q13546). The experiment is described as follows: Fluorescent Polarization Binding (FP Binding) assay, RIPK1. The settings on record: 10 nM GST-hRIPK1 (8-327), 5 nM fluorescent-labeled ligand, RT, 30 min, mean of at least two independent experiments. The gist of the method:
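Binding by fluorescence polarisation at RT: 10 nM baculovirus-expressed GST-hRIPK1 (8-327) and 5 nM fluorescent ligand, 30 min, in 50 mM HEPES pH 7.5, 50 mM MgCl2, 0.02% CHAPS, 1% DMSO. FP read at ex 531/em 595 nm. IC50 from normalised percent inhibition, mean of ≥2 experiments.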
What is called IC50 is the concentration that gives 50% inhibition. Higher therefore signals a need for much substance. Compound `COc1nccc(N2CCC(F)(C(=O)N3CCOc4c(C#N)cncc4C3)CC2)n1` [Example 172, 4-[4-fluoro-1-(2-methoxypyrimidin-4-yl)piperidine-4-carbonyl]-3,5-dihydro-2H-pyrido[3,4-f][1,4]oxazepine-9-carbonitrile] came in with an IC50 of 100 to 1000 nM. On the same count and under the same terms, the same measure for `N#Cc1cncc2c1OCCN(C(=O)C1(CF)CCN(c3ncc(F)cn3)CC1)C2` [Example 137, 4-(4-(fluoromethyl)-1-(5-fluoropyrimidin-2-yl)piperidine-4-carbonyl)-2,3,4,5-tetrahydropyrido[3,4-f][1,4]oxazepine-9-carbonitrile]: 100 to 1000 nM. On the same count and under the same terms, the same measure for `CCC(C)(C)C(=O)N1CCCc2ccccc2C1` [Example 4, 2,2-dimethyl-1-(1,3,4,5-tetrahydro-2-benzazepin-2-yl)butan-1-one]: 100 to 1000 nM; for `O=C(C(C1CC1)C1CC1)N1CCOc2c(F)cccc2C1` [Example 19, 2,2-dicyclopropyl-1-(9-fluoro-3,5-dihydro-2H-1,4-benzoxazepin-4-yl)ethanone]: over 1000 nM.

Regarding `C[C@@H]1COc2c(C#N)cncc2CN1C(=O)C(C)(C)C` [Example 78, (3R)-4-(2,2-dimethylpropanoyl)-3-methyl-3,5-dihydro-2H-pyrido[3,4-f][1,4]oxazepine-9-carbonitrile], the IC50 lay within 0.1 to 100 nM. In turn, `N#Cc1cncc2c1OCCN(C(=O)C1(F)CCN(c3cnc4ccccc4n3)CC1)C2` [Example 198, 4-(4-fluoro-1-quinoxalin-2-yl-piperidine-4-carbonyl)-3,5-dihydro-2H-pyrido[3,4-f][1,4]oxazepine-9-carbonitrile] registered an IC50 of 100 to 1000 nM. Still for that read-out and setting: with `N#Cc1cncc2c1OCCN(C(=O)C1(F)CCN(C(=O)c3cccnc3)CC1)C2` [Example 95, 4-[4-fluoro-1-(pyridine-3-carbonyl)piperidine-4-carbonyl]-3,5-dihydro-2H-pyrido[3,4-f][1,4]oxazepine-9-carbonitrile] the figure was over 1000 nM; with `CC1CN(c2ncc(F)cn2)CCC1C(=O)N1CCOc2c(C#N)cncc2C1` (centres unmarked) [Example 187, 4-[1-(5-fluoropyrimidin-2-yl)-3-methyl-piperidine-4-carbonyl]-3,5-dihydro-2H-pyrido[3,4-f][1,4]oxazepine-9-carbonitrile], 0.1 to 100 nM; with `CC(CC(F)(F)F)C(=O)N1CCOc2c(C#N)cncc2C1` (centres unmarked) [Example 141, 4-(4,4,4-trifluoro-2-methyl-butanoyl)-3,5-dihydro-2H-pyrido[3,4-f][1,4]oxazepine-9-carbonitrile], 100 to 1000 nM. The same measure, in the same setting: with `COC1(C(=O)N2CCOc3c(F)cncc3C2)CCN(c2nccc(OCC(F)F)n2)CC1` [Example 134, [1-[4-(2,2-difluoroethoxy)pyrimidin-2-yl]-4-methoxy-4-piperidyl]-(9-fluoro-3,5-dihydro-2H-pyrido[3,4-f][1,4]oxazepin-4-yl)methanone] the figure was 100 to 1000 nM; with `CCC(C)(CC#N)C(=O)N1CCOc2c(F)cncc2C1` (centres unmarked) [Example 73, 3-(9-fluoro-3,5-dihydro-2H-pyrido[3,4-f][1,4]oxazepine-4-carbonyl)-3-methyl-pentanenitrile], 100 to 1000 nM. In turn, `Cc1cnc(N2CCC(F)(C(=O)N3CCOc4c(C#N)cncc4C3)CC2)nc1` [Example 163, 4-[4-fluoro-1-(5-methylpyrimidin-2-yl)piperidine-4-carbonyl]-3,5-dihydro-2H-pyrido[3,4-f][1,4]oxazepine-9-carbonitrile] had a 50% inhibitory concentration (IC50) of 100 to 1000 nM. Regarding `COc1ccnc(N2CCC(F)(C(=O)N3CCOc4c(C#N)cncc4C3)CC2)n1` [Example 103, 4-[4-fluoro-1-(4-methoxypyrimidin-2-yl)piperidine-4-carbonyl]-3,5-dihydro-2H-pyrido[3,4-f][1,4]oxazepine-9-carbonitrile], the IC50 is 0.1 to 100 nM. In the case of `CCC1(C(=O)N2CCOc3c(C#N)cncc3C2)CCN(c2ncc(F)cn2)CC1` [Example 98, 4-[4-ethyl-1-(5-fluoropyrimidin-2-yl)piperidine-4-carbonyl]-3,5-dihydro-2H-pyrido[3,4-f][1,4]oxazepine-9-carbonitrile], the IC50 is 100 to 1000 nM. The same measure, in the same setting: with `CC(C)(OC(F)(F)F)C(=O)N1CCOc2c(C#N)cncc2C1` [Example 69, 4-[2-methyl-2-(trifluoromethoxy)propanoyl]-3,5-dihydro-2H-pyrido[3,4-f][1,4]oxazepine-9-carbonitrile] the figure was 0.1 to 100 nM. The same measure, in the same setting: the same measure for `COCCOc1nc(N2CCC(C(=O)N3CCOc4c(F)cncc4C3)CC2)ncc1F` [Example 130, (9-fluoro-3,5-dihydro-2H-pyrido[3,4-f][1,4]oxazepin-4-yl)-[1-[5-fluoro-4-(2-methoxyethoxy)pyrimidin-2-yl]-4-piperidyl]methanone]: 0.1 to 100 nM; for `CCC(C)(C)C(=O)N1Cc2cncc(C#N)c2OC[C@H]1C` [Example 75, (3R)-4-(2,2-dimethylbutanoyl)-3-methyl-3,5-dihydro-2H-pyrido[3,4-f][1,4]oxazepine-9-carbonitrile]: 0.1 to 100 nM. In turn, `N#Cc1cncc2c1OCCN(C(=O)C1(F)CCN(c3ncccc3F)CC1)C2` [Example 113, 4-[4-fluoro-1-(3-fluoro-2-pyridyl)piperidine-4-carbonyl]-3,5-dihydro-2H-pyrido[3,4-f][1,4]oxazepine-9-carbonitrile] showed a half-maximal inhibitory concentration (IC50) of 100 to 1000 nM. On to `CC(C)(C(=O)N1CCOc2c(C#N)cncc2C1)C(F)F` [Example 29, 4-(3,3-difluoro-2,2-dimethyl-propanoyl)-3,5-dihydro-2H-pyrido[3,4-f][1,4]oxazepine-9-carbonitrile], for which the IC50 lay within 0.1 to 100 nM. The compound `CC(C)(C(=O)N1CCOc2c(C#N)cncc2C1)C1CC1` [Example 30, 4-(2-cyclopropyl-2-methyl-propanoyl)-3,5-dihydro-2H-pyrido[3,4-f][1,4]oxazepine-9-carbonitrile] showed an IC50 of 0.1 to 100 nM. Still for that read-out and setting: the same measure for `N#Cc1cncc2c1OCCN(C(=O)C1(F)CCN(c3ncc4ccccc4n3)CC1)C2` [Example 97, 4-(4-fluoro-1-quinazolin-2-yl-piperidine-4-carbonyl)-3,5-dihydro-2H-pyrido[3,4-f][1,4]oxazepine-9-carbonitrile]: 0.1 to 100 nM; for `COc1nc(N2CCC(F)(C(=O)N3CCOc4c(C#N)cncc4C3)CC2)nc(C)c1F` [Example 196, 4-[4-fluoro-1-(5-fluoro-4-methoxy-6-methyl-pyrimidin-2-yl)piperidine-4-carbonyl]-3,5-dihydro-2H-pyrido[3,4-f][1,4]oxazepine-9-carbonitrile]: 100 to 1000 nM.

The compound `N#Cc1cncc2c1OCCN(C(=O)C1(F)CC1)C2` [Example 140, 4-(1-fluorocyclopropanecarbonyl)-3,5-dihydro-2H-pyrido[3,4-f][1,4]oxazepine-9-carbonitrile] had a half-inhibitory concentration (IC50) of over 1000 nM. Same read-out and setting: with `CC(C)C(C)(C)C(=O)N1CCOc2c(C#N)cncc2C1` [Example 145, 4-(2,2,3-trimethylbutanoyl)-3,5-dihydro-2H-pyrido[3,4-f][1,4]oxazepine-9-carbonitrile] the figure was 0.1 to 100 nM.

Staying with this experiment, now noted: GST-hRIPK1 (8-327), mean of at least two independent experiments.
In turn, `CC1(C(=O)N2CCOc3c(C#N)cncc3C2)CCN(c2nccn3ncnc23)CC1(F)F` (centres unmarked) [Example 222, 4-[3,3-difluoro-4-methyl-1-([1,2,4]triazolo[1,5-a]pyrazin-8-yl)piperidine-4-carbonyl]-3,5-dihydro-2H-pyrido[3,4-f][1,4]oxazepine-9-carbonitrile] showed a concentration for half-maximal inhibition (IC50) of 0.1 to 100 nM.

For `N#Cc1cncc2c1OCCN(C(=O)C1CCN(c3ccnc4ccnn34)C[C@@H]1F)C2` (stereo partly drawn) [Example 249, 4-[(3,4)-trans-3-fluoro-1-pyrazolo[1,5-a]pyrimidin-7-yl-piperidine-4-carbonyl]-3,5-dihydro-2H-pyrido[3,4-f][1,4]oxazepine-9-carbonitrile], the IC50 lay in the range of 0.1 to 100 nM. As for `N#Cc1cncc2c1OCCN(C(=O)C1CCN(c3ncc(F)cn3)C[C@@H]1F)C2` (stereo partly drawn) [Example 242, 4-[(3,4)-trans-3-fluoro-1-(5-fluoropyrimidin-2-yl)piperidine-4-carbonyl]-3,5-dihydro-2H-pyrido[3,4-f][1,4]oxazepine-9-carbonitrile], the half-inhibitory concentration (IC50) was in the range of 0.1 to 100 nM.

`N#Cc1cncc2c1OCCN(C(=O)C1CCN(c3nccc4ncnn34)C[C@@H]1F)C2` (stereo partly drawn) [Example 250, 4-[(3,4)-trans-3-fluoro-1-([1,2,4]triazolo[1,5-c]pyrimidin-5-yl)piperidine-4-carbonyl]-3,5-dihydro-2H-pyrido[3,4-f][1,4]oxazepine-9-carbonitrile] displayed an IC50 of 100 to 1000 nM. The same measure, in the same setting: with `O=C(C1CCN(c2ccnc3ccnn23)CC1(F)F)N1CCOc2c(F)cncc2C1` (centres unmarked) [Example 252, (3,3-difluoro-1-pyrazolo[1,5-a]pyrimidin-7-yl-4-piperidyl)-(9-fluoro-3,5-dihydro-2H-pyrido[3,4-f][1,4]oxazepin-4-yl)methanone] the figure was 100 to 1000 nM; with `COC1(C(=O)N2CCOc3c(C#N)cncc3C2)CCN(c2ncc(F)c(C3CC3)n2)CC1` [Example 233, 4-[1-(4-cyclopropyl-5-fluoro-pyrimidin-2-yl)-4-methoxy-piperidine-4-carbonyl]-3,5-dihydro-2H-pyrido[3,4-f][1,4]oxazepine-9-carbonitrile], 0.1 to 100 nM; with `CC1(C(=O)N2CCOc3c(C#N)cncc3C2)CCN(c2ncc(Cl)cn2)CC1(F)F` (centres unmarked) [Example 215, 4-(1-(5-chloropyrimidin-2-yl)-3,3-difluoro-4-methylpiperidine-4-carbonyl)-2,3,4,5-tetrahydropyrido[3,4-f][1,4]oxazepine-9-carbonitrile], 0.1 to 100 nM. Turning to `N#Cc1cncc2c1OCCN(C(=O)C1CCN(c3ncc(F)cn3)CC1F)C2` (single isomer, unassigned) [Example 306, 4-[3-Fluoro-1-(5-fluoropyrimidin-2-yl)piperidine-4-carbonyl]-3,5-dihydro-2H-pyrido[3,4-f][1,4]oxazepine-9-carbonitrile], the IC50 lay within 0.1 to 100 nM.
